In patent US20250011798A1, “[…] PRODUCTION” (ModernaTX, Inc., priority 2021, published 2025):

Experiments:
[1] = tested on: tolC mutant strain (tolC::amber, Strain 4); assay: Toxin sensitivity of the tolC::amber mutant strain; type: cell-based, E. coli; conditions: low concentrations; irrespective of the growth media
Excerpt: The TAG amber mutation was introduced into the tolC ORF a plasmid DNA production strain, Strain 4 (FIG. 2). TolC is the major outer membrane efflux pump component of E. coli. It is not an essential gene, but it is necessary for the efflux of many toxins, and a tolC knockout is lethal at elevated levels. The tolC mutant strain generated by the tolC::amber mutation was therefore hypersensitive to many toxins, such as low concentrations of nalidixic acid, irrespective of the growth media. While a tolC mutant has hypersensitivity to toxins, it can be cultured normally in rich media such as LB or Terrific Broth, which allows for the generation of competent cells that may be used for DNA synthesis in production.

[2] = tested on: E. coli strains tolC::K3_amber (K3) and tolC::H342_amber (H342); assay: Growth of transformed tolC::amber E. coli strains over 24 hours in media containing kanamycin or deoxycholate; type: cell-based; conditions: K3 and H342 strains with control luciferase plasmid, TBAF++ media containing deoxycholate (DOC 150), 37° C., FIGS. 3C-3D
Method: It was evaluated whether plasmid-borne expression of a mutant tRNA with an anticodon that is complementary to the tolC amber mutation would allow for expression of full-length TolC protein, and therefore allow the strain to grow in the presence of an otherwise lethal concentration of nalidixic acid (FIG. 2). In this case, a histidine tRNA, hisR, was modified with an anticodon loop that is complementary to the tolC amber STOP codon, UAG on RNA, which is encoded by TAG on DNA. Mutant E. coli strains were generated by introducing either a tolC::K3_amber (referred to as “K3”) or tolC::H342_amber (referred to as “H342”) amber mutation into the genome (FIG. 3A). Introduction of a STOP codon at an early codon of the open reading frame prevents the translation of non-functional TolC peptides with intact leader sequences, which would otherwise be translocated across the inner cell membrane into the periplasmic space or outer membrane. Each strain also contained codon-optimized tolC coding sequences. Both strains were transformed with a plasmid encoding either i) an amber suppressor tRNA that carries histidine (hisR), or ii) luciferase, as a control plasmid. Both plasmids carried a kanamycin-resistance marker to allow for plasmid maintenance during growth. […]

Row | Compound | Sensitivity of the tolC mutant strain to the toxin [1] | Effect on growth of strains not expressing the HisR tRNA [2]
1 | CCn1cc(C(=O)O)c(=O)c2ccc(C)nc21 [nalidixic acid] | hypersensitive | 
2 | deoxycholate [DOC 150] |  | lethal
